Laboratory results from PMC8124228, “New Hybrids Based on Curcumin and Resveratrol: Synthesis, Cytotoxicity and Antiproliferative Activity against Colorectal Cancer Cells” (Molecules, 2021).
Read-outs that look alike come from different tables or passages of the source. Values belong to the compound of their own block, whether it stands above or below them.

Legend:
[1] = test system: MDA-MB-231/ATCC, PC-3, SNB-75, RPMI-8226, MOLT-4, CCRF-CEM and HS 578T cell lines; design: method as in doi:10.1007/s00044-014-1146-2; details: mean over cell lines; cited from earlier work
[2] = test system: non-malignant CHO-K1 cell line; experiment: Sulforhodamine B (SRB) cytotoxicity assay, non-malignant cells; type: cell-based; details: Cricetulus griseus, mean ± SE
Procedure: (§1) To determine the cytotoxic effect of the synthesized hybrids, they were evaluated against SW480 human colon adenocarcinoma cells, its metastatic derivative SW620 and the non-malignant CHO-K1 cell line, through the sulforhodamine B assay. In this experiment, 5-FU was also included as the reference drug, as well as the parental subunits (curcumin and resveratrol) and the equimolar mixture of these. Cytotoxicity was reported as 50% inhibitory concentration (IC50 values).
(§2) Biological assays were performed using an adenocarcinoma colon cancer cell line (SW480), its metastatic derivative (SW620) and non-malignant cells (CHO-K1). These were obtained from The European Collection of Authenticated Cell Cultures (ECACC, England) and maintained in Dulbecco’s Modified Eagle Medium, supplemented with 10% heat-inactivated (56 °C) horse serum, 1% penicillin/streptomycin and 1% non-essential amino acids (Gibco Invitrogen, Carlsbad, USA). For all experiments, horse serum was reduced to 3%, and the medium was supplemented with […], 5 ng/mL selenium and […] (ITS-defined medium; Gibco, Invitrogen, Carlsbad, CA, USA).
(§3) Cytotoxicity of the synthesized hybrids, lead and reference compounds was evaluated through Sulforhodamine B (SRB) assay, a colorimetric test that is based on staining of total cellular protein of adherent cells. Cells were seeded to a final density of 20,000 cells/well in 96-well tissue culture plates and incubated at 37 °C in a humidified atmosphere at 5% CO2. All cultures were allowed to grow for 24 h, and afterward they were treated with DMSO (vehicle control 1%) or increasing concentrations (0.01–200 µM) of the synthesized hybrids, as well as curcumin and resveratrol (lead compounds), the equimolar mixture of these and 5-fluorouracil (5-FU; the standard drug). After treatment, cells were fixed with trichloroacetic acid (50% v/v) (MERCK) for a period of 1 h at 4 °C. Cell proteins were determined by staining with 0.4% (w/v) SRB (Sigma-Aldrich, United States), and then they were washed with 1% acetic acid for the removal of unbound SRB and left for air-drying. Protein bound SRB was solubilized in 10 mM Tris-base and the absorbance was measured at 492 nm in a microplate reader (Mindray MR-96A). All experiments were performed at least in triplicate.

[3] = test system: SW480 human colon adenocarcinoma cells; experiment: Sulforhodamine B (SRB) cytotoxicity assay, SW480; type: cell-based; details: for SI (selectivity index): IC50 CHO-K1 / IC50 SW480; for IC50: SRB, mean ± SE
Procedure: as §1, §2, §3

[4] = test system: SW620 cells (metastatic derivative of SW480); experiment: Sulforhodamine B (SRB) cytotoxicity assay, SW620; type: cell-based, human; details: for SI (selectivity index): IC50 CHO-K1 / IC50 SW620; for IC50: Homo sapiens, SW-620, SRB, mean ± SE
Procedure: as §1, §2, §3

SW620 cell line = experiment: Antiproliferative activity (SRB, 2-8 days), SW620; type: cell-based, human; details: for viability at 10 µM / viability at 160 µM: Homo sapiens, vehicle control = 100%, read-out: Viability (%) ± SE; for viability at 10 µM: SW620, 10 µM; for viability at 160 µM: SW620, 160 µM; for reduction in viability: SW620, after two days of treatment, concentrations higher than 10 µM
Procedure: (§4) With the aim of testing the antiproliferative effect of the most cytotoxic and selective hybrids (3e and 3i for SW480 and 3a, 3e and 3k for SW620), they were analyzed through a longer period. According to the results in comparison with the control, it was observed that the activity was time- and concentration-dependent, as evidenced by the decrease in cell viability in the highest concentrations (Table 2). […] Similar results were presented in a previous investigation by Herrera-R et al. (2018), reporting the antiproliferative effect and morphological changes in SW480 cells after treatment with different hybrids using a stilbene moiety, which highlights the potential of this scaffold in the approach to design molecules with potential activity against CRC.
(§5) Briefly, cells were seeded to a final density of 2500 cells/well in 96-well tissue culture plates and incubated in the same conditions described for cytotoxicity. […] Culture media was replaced every 48 h. After each incubation time, cells were fixed, stained and read as previously described for this technique.

SW480 cell line = experiment: Antiproliferative activity (SRB, 2-8 days), SW480; type: cell-based; details: Homo sapiens, vehicle control = 100%, read-out: Viability (%) ± SE; for viability at 10 µM: SW480, 10 µM; for viability at 160 µM: SW480, 160 µM
Procedure: as §4, §5

[5] = test system: LNCaP (human androgen-dependent prostate cancer) cell line; design: method as in PMID 26341135; details: cited from earlier work
[6] = test system: A549 human lung cancer cells; design: method as in PMID 26174555; details: cited from earlier work
[7] = test system: H-460 human lung cancer cells; design: method as in PMID 26174555; details: cited from earlier work
[8] = test system: MCF-7 human breast cancer cell line; design: method as in PMID 26174555; details: cited from earlier work
[9] = test system: SKOV-3 ovarian carcinoma cells; design: method as in PMID 26174555; details: cited from earlier work
[10] = Homo sapiens, SW480, 24 h, 24 h
[11] = Homo sapiens, SW480, 48 h, 48 h

Structure (SMILES): COc1ccc(C2NC(=O)NC(/C=C/c3ccc(O)c(OC)c3)=C2C(=O)/C=C/c2ccc(O)c(OC)c2)cc1 (stereo not drawn) [Curcumin–monastrol hybrid]
mean growth percentage (GP) [1]: 88.90

Structure (SMILES): CCn1ccnc1/C=C/C(=O)/C=C/c1coc2ccccc2c1=O [Hybrid curcum–imidazol]
IC50 [5]: 1 µM

Structure (SMILES): C#CCn1c(=O)c(/C=C/C(=O)CC(=O)/C=C/c2ccc(O)c(OC)c2)cc2cc(C)ccc21 [curcumin–quinolone hybrid]
IC50 [6]: 23.9 µM | IC50 [7]: 21.8 µM | IC50 [8]: 36.2 µM | IC50 [9]: 12.8 µM

More lines, main results first:

melting point: 119 to 120 °C
Structure (SMILES): COc1cc(/C=C/C(=O)c2ccc(/C=C/c3ccc(O)cc3)cc2)ccc1O [Hybrid 3a, (E)-3-(4-Hydroxy-3-methoxyphenyl)-1-(4-((E)-4-hydroxystyryl)phenyl)prop-2-en-1-one]
IC50 ([2]; 24 h): 122 ± 15.5 µM | IC50 ([2]; 48 h): 51.6 ± 10.5 µM | SI (selectivity index) ([3]; 24 h): 1.28 | SI (selectivity index) ([3]; 48 h): 0.54 | IC50 [3, 10]: 96 ± 2.76 µM | IC50 [3, 11]: 95.1 ± 7.02 µM | SI (selectivity index) ([4]; 24 h): 0.74 | IC50 ([4]; 24 h): 166 ± 11.8 µM | IC50 ([4]; 48 h): 20.2 ± 1.21 µM | viability at 10 µM (SW620 cell line; SW-620, 48 h, day 2): 71.9 ± 1.9% | viability at 160 µM (SW620 cell line; SW-620, 48 h, day 2): 16.1% | viability at 10 µM (SW620 cell line; SW-620, 96 h, day 4): 10.7 ± 4.7% | viability at 160 µM (SW620 cell line; SW-620, 96 h, day 4): 0% | viability at 10 µM (SW620 cell line; SW-620, 144 h, day 6): 2.5 ± 0.5% | viability at 160 µM (SW620 cell line; SW-620, 144 h, day 6): 0% | viability at 10 µM (SW620 cell line; SW-620, 192 h, day 8): 0.2 ± 0.3% | viability at 160 µM (SW620 cell line; SW-620, 192 h, day 8): 0%

melting point: 78 to 82 °C
Structure (SMILES): COc1ccc(/C=C/c2ccc(C(=O)/C=C/c3ccc(O)c(OC)c3)cc2)c(OC)c1 [Hybrid 3e, (E)-1-(4-((E)-2,4-Dimethoxystyryl)phenyl)-3-(4-hydroxy-3-methoxyphenyl)prop-2-en-1-one]
IC50 ([2]; 24 h): 100.6 ± 1 µM | IC50 ([2]; 48 h): 43.3 ± 6.84 µM | SI (selectivity index) ([3]; 24 h): 1.85 | IC50 [3, 10]: 54.4 ± 6.93 µM | SI (selectivity index) ([4]; 24 h): 1.81 | IC50 ([4]; 24 h): 55.5 ± 8 µM | IC50 ([4]; 48 h): 20.4 ± 3.51 µM | viability at 10 µM (SW480 cell line; 48 h, day 2): 53.9 ± 5.3% | viability at 160 µM (SW480 cell line; 48 h, day 2): 32.9 ± 1.3% | viability at 10 µM (SW480 cell line; 96 h, day 4): 2.3 ± 0.3% | viability at 160 µM (SW480 cell line; 96 h, day 4): 0.9 ± 0.2% | viability at 10 µM (SW480 cell line; 144 h, day 6): 3.8 ± 2.7% | viability at 160 µM (SW480 cell line; 144 h, day 6): 0.5 ± 0.2% | viability at 10 µM (SW480 cell line; 192 h, day 8): 5.2 ± 0.3% | viability at 160 µM (SW480 cell line; 192 h, day 8): 0.1 ± 0.1% | viability at 10 µM (SW620 cell line; SW-620, 48 h, day 2): 80.6 ± 4% | viability at 160 µM (SW620 cell line; SW-620, 48 h, day 2): 5 ± 1% | viability at 10 µM (SW620 cell line; SW-620, 96 h, day 4): 11.1 ± 4.2% | viability at 160 µM (SW620 cell line; SW-620, 96 h, day 4): 4.1% | viability at 10 µM (SW620 cell line; SW-620, 144 h, day 6): 4.1 ± 2.2% | viability at 160 µM (SW620 cell line; SW-620, 144 h, day 6): 0% | viability at 10 µM (SW620 cell line; SW-620, 192 h, day 8): 0.6 ± 0.5% | viability at 160 µM (SW620 cell line; SW-620, 192 h, day 8): 0% | reduction in viability (SW620 cell line): significant reduction in viability

melting point: 67 to 70 °C
Structure (SMILES): COc1cc(/C=C/C(=O)c2ccc(/C=C/c3ccc(OC)c(OC)c3)cc2)ccc1O [Hybrid 3i, (E)-1-(4-((E)-3,4-dimethoxystyryl)phenyl)-3-(4-hydroxy-3-methoxyphenyl)prop-2-en-1-one]
IC50 ([2]; 24 h): 104 ± 5.03 µM | IC50 ([2]; 48 h): 28.3 ± 9.3 µM | SI (selectivity index) ([3]; 24 h): 2.09 | IC50 ([3]; 48 h): 11.5 ± 2.78 µM | IC50 [3, 10]: 49.7 ± 4.56 µM | IC50 [3, 11]: 11.5 to 29.2 µM | SI (selectivity index) ([4]; 24 h): 1.32 | SI (selectivity index) ([4]; 48 h): 0.96 | IC50 ([4]; 24 h): 78.9 ± 6.2 µM | IC50 ([4]; 48 h): 29.3 ± 4.73 µM | viability at 10 µM (SW480 cell line; 48 h, day 2): 54.4 ± 7.4% | viability at 160 µM (SW480 cell line; 48 h, day 2): 30.3 ± 8.5% | viability at 10 µM (SW480 cell line; 96 h, day 4): 2 ± 0.2% | viability at 160 µM (SW480 cell line; 96 h, day 4): 1.7 ± 0.1% | viability at 10 µM (SW480 cell line; 144 h, day 6): 1.6 ± 0.2% | viability at 160 µM (SW480 cell line; 144 h, day 6): 0.1 ± 0.1% | viability at 10 µM (SW480 cell line; 192 h, day 8): 1.6 ± 0.3% | viability at 160 µM (SW480 cell line; 192 h, day 8): 0.2 ± 0.1%

melting point: 74 to 77 °C
Structure (SMILES): COc1cc(/C=C/C(=O)c2ccc(/C=C/c3cc(OC)c(OC)c(OC)c3)cc2)ccc1O [Hybrid 3k, (E)-3-(4-Hydroxy-3-methoxyphenyl)-1-(4-((E)-3,4,5-trimethoxystyryl)phenyl)prop-2-en-1-one]
IC50 ([2]; 24 h): 74.6 ± 4.2 µM | IC50 ([2]; 48 h): 29.4 ± 2.29 µM | SI (selectivity index) ([3]; 24 h): 0.84 | SI (selectivity index) ([3]; 48 h): 0.34 | IC50 [3, 10]: 88.5 ± 4.58 µM | IC50 [3, 11]: 85.8 ± 1.27 µM | SI (selectivity index) ([4]; 24 h): 3.65 | IC50 ([4]; 24 h): 20.4 ± 2.43 µM | IC50 ([4]; 48 h): 11.8 ± 1.2 µM | viability at 10 µM (SW620 cell line; SW-620, 48 h, day 2): 56.1 ± 4% | viability at 160 µM (SW620 cell line; SW-620, 48 h, day 2): 2.4 ± 0.7% | viability at 10 µM (SW620 cell line; SW-620, 96 h, day 4): 12.1% | viability at 160 µM (SW620 cell line; SW-620, 96 h, day 4): 0% | viability at 10 µM (SW620 cell line; SW-620, 144 h, day 6): 1.9 ± 0.8% | viability at 160 µM (SW620 cell line; SW-620, 144 h, day 6): 0% | viability at 10 µM (SW620 cell line; SW-620, 192 h, day 8): 0.1 ± 0.1% | viability at 160 µM (SW620 cell line; SW-620, 192 h, day 8): 0% | reduction in viability (SW620 cell line): significant reduction in viability
